We go through 1 substance from patent US20250325572A1, “TREATMENTS FOR PAIN” (Sevenless Therapeutics Limited, priority 2022, published 2025).

The subject of assay [1] is NGF stimulated pERK1/2 activation in PC-12 cells. Briefly: Tanezumab / SOS1 inhibitor combination in the NGF stimulated pERK1/2 PC-12 assay. It is filed as cell-based, rat. Here is the method:
The combined inhibitory effect of a selective, small molecule SOS1 inhibitor and known antibody based NGF inhibitor, Anti-NGF was monitored via an HTRF readout measuring phosphorylation of ERK1/2 by NGF activation. All assays were performed in rat adrenal PC-12 cells (Merck) that had been serum-starved for a period of 24 hours in RPMI-1640 growth medium (Gibco) supplemented with 1% heat-inactivated horse serum (Merck), 0.5% heat-inactivated fetal bovine serum (FBS), 1% penicillin-streptomycin and 2 mM L-Glutamine unless specified otherwise. Reagents from the HTRF commercial kit (Cisbio) were prepared according to the manufacturer's instructions.
PC-12 cells were isolated from routine cellular culture and plated at an appropriate cell density (typically 25,000 cells per well) in 384-well plates for 24 hours under serum-starved conditions. Working preparations of varying Anti-NGF (Abcam) concentrations and a fixed NGF concentration were prepared in serum-starved media and pre-incubated for 30 minutes (37° C./5% CO2). […] A 2-hour incubation at room temperature was performed prior to fluorescence signal being measured in a microplate reader (PHERAstar FSX, BMG Labtech).
Percentage inhibition values were calculated per compound concentration by normalising the sample data to the high and low controls used within each plate (+/−250 ng/mL NGF respectively). […] Response data were then plotted against the molar logarithm for each SOS1 inhibitor compound concentration together with the determined fit results for display purposes. […] The mean percentage inhibition value calculated for both the top and bottom concentration of SOS1 inhibitor compound tested per Anti-NGF:NGF combination was extracted and compared in tabular form across the different Anti-NGF:NGF combinations tested.
The ability of an NGF inhibitor Tanezumab in combination with a SOS1 inhibitor to treat pain was measured in the Inhibition of Nerve Growth Factor (NGF) stimulated phospho-Extracellular Regulated Kinase 1 and 2 (pERK1/2) activation in the PC-12 cell line assay.

Assay [2] is described as follows: Analgesic effect of SOS1 inhibitor combined with Tanezumab. Format: in vivo.
Assay [3] deals with knee osteoarthritis pain model. To be noted: rats, 10 mg/kg; cited from earlier work.

Take “Tanezumab: an example of an anti-NGF antibody”: the efficacy is approximately 96% in assay [1] (Tanezumab 50 nM in combination with SOS1 inhibitor 500 nM); 90% in assay [1] (Tanezumab alone, 50 nM); 100% in assay [1] (tanezumab alone, 200 nM); “shows efficacy” in assay [3]. Also, in assay [2] (0.3 mg/kg Tanezumab in combination with low doses of a SOS1 inhibitor), the analgesic effect result is “significant analgesic effect”. Moreover, the “increase in analgesia versus dose” value in assay [2] (fixed dose SOS1 inhibitor, varied antibody dose) was “efficacy is dose related”.
